PubChem BioAssay (NCI)
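Each compound was tested at five concentrations against cells in 96-well plates for 48 hours. The concentration for 50% growth inhibition is given as GI50. Definition used: TGI = concentration required for complete inhibition of growth.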

Experiments:
Assay in all cases: DTP human tumour cell line panel, 48 h
DLD-1 colon = test system: DLD-1 colon
DMS 273 small cell lung = test system: DMS 273 small cell lung
HOP-18 NSCLC = test system: HOP-18 NSCLC
MDA-N = test system: MDA-N
RXF-631 renal = test system: RXF-631 renal
SNB-78 CNS = test system: SNB-78 CNS
XF 498 CNS = test system: XF 498 CNS

O=C1/C(=C/c2ccc(Cl)cc2)CCC1CN1CCOCC1 (centres undefined)
TGI (DLD-1 colon): 11.3 µM
TGI (DMS 273 small cell lung): 11.9 µM
TGI (HOP-18 NSCLC): 29.7 µM
TGI (MDA-N): 18.4 µM
TGI (RXF-631 renal): > 62.5 µM
TGI (SNB-78 CNS): 48.9 µM
TGI (XF 498 CNS): 4.97 µM

CN(C)c1ccc2cc3ccc(N(C)C)cc3nc2c1
TGI (MDA-N): 3.03 µM

CN(C)C(=S)/N=c1\ss/c(=N\C(=S)N(C)C)n1Cc1ccco1
TGI (DLD-1 colon): > 100 µM
TGI (DMS 273 small cell lung): > 100 µM
TGI (HOP-18 NSCLC): > 100 µM
TGI (SNB-78 CNS): > 100 µM

CN(C(=O)C12C3C4C1C1C2C3C41C(O)C(C)(C)C)C(C)(C)C (centres undefined)
TGI (DLD-1 colon): > 100 µM
TGI (DMS 273 small cell lung): > 100 µM
TGI (RXF-631 renal): > 100 µM
TGI (SNB-78 CNS): > 100 µM
TGI (XF 498 CNS): > 100 µM

O=S1c2ccccc2NC(c2ccc3ccccc3c2)CC1c1ccccc1 (centres undefined)
TGI (DLD-1 colon): 70.1 µM
TGI (DMS 273 small cell lung): 91.6 µM
TGI (HOP-18 NSCLC): > 100 µM
TGI (XF 498 CNS): 52.8 µM

Oc1ccc2ccccc2c1N=Nc1ccc(Cl)cc1
TGI (MDA-N): > 100 µM

C[N+](C)(C)CC(CC(=O)[O-])C1CC1 (centres undefined)
TGI (DMS 273 small cell lung): > 100 µM
TGI (HOP-18 NSCLC): > 100 µM
TGI (RXF-631 renal): > 100 µM
TGI (XF 498 CNS): > 100 µM

O=c1ccn(C2(CO)C=C(CO)C(O)C2O)c(=O)[nH]1 (centres undefined)
TGI (DLD-1 colon): > 25.7 µM
TGI (DMS 273 small cell lung): > 25.7 µM
TGI (HOP-18 NSCLC): > 25.7 µM
TGI (RXF-631 renal): > 25.7 µM
TGI (SNB-78 CNS): > 25.7 µM

CCOc1cc2c(=O)oc3c(OC)ccc4ccc(c1OC)c2c43
TGI (MDA-N): > 100 µM

CCCC(=O)c1ccc(=O)n(C)c1
TGI (DLD-1 colon): > 100 µM
TGI (DMS 273 small cell lung): > 100 µM
TGI (RXF-631 renal): > 100 µM
TGI (XF 498 CNS): > 100 µM

CCCCCCCCCCCCCCCC(=O)OCC1OC(OC)C(NC(=O)N(CCCl)N=O)C(O)C1O (centres undefined)
TGI (DLD-1 colon): 37.9 µM
TGI (DMS 273 small cell lung): 25.2 µM
TGI (HOP-18 NSCLC): > 100 µM
TGI (MDA-N): 32 µM
TGI (SNB-78 CNS): > 85.5 µM
TGI (XF 498 CNS): 25.7 µM

CCCC(C)c1c(Cl)nc(Cl)nc1Cl (centres undefined)
TGI (MDA-N): 21 µM

Nc1c(C(=O)NC23CC4CC(CC(C4)C2)C3)[n+]([O-])c2ccccc2[n+]1[O-]
TGI (DLD-1 colon): > 100 µM
TGI (DMS 273 small cell lung): > 100 µM
TGI (HOP-18 NSCLC): > 100 µM
TGI (SNB-78 CNS): > 100 µM
TGI (XF 498 CNS): > 100 µM

Cc1cn([C@H]2C[C@H](O)[C@@H](CO)O2)c(=O)nc1N
TGI (MDA-N): > 100 µM

COc1ccc(OC(C)C(=O)O)c2c1CCCC2=O (centres undefined)
TGI (DLD-1 colon): > 100 µM
TGI (DMS 273 small cell lung): > 100 µM
TGI (SNB-78 CNS): > 100 µM
TGI (XF 498 CNS): > 100 µM

CC(C)CN1CC(C)C(=O)NC1=O (centres undefined)
TGI (DLD-1 colon): > 100 µM
TGI (DMS 273 small cell lung): > 100 µM
TGI (SNB-78 CNS): > 100 µM
TGI (XF 498 CNS): > 100 µM

O=C1/C(=C/c2ccc(Cl)c(Cl)c2)CNC/C1=C\c1ccc(Cl)c(Cl)c1
TGI (DLD-1 colon): 3.84 µM
TGI (DMS 273 small cell lung): 19.2 µM
TGI (HOP-18 NSCLC): > 91.9 µM
TGI (MDA-N): 39.9 µM
TGI (RXF-631 renal): > 100 µM
TGI (SNB-78 CNS): > 100 µM
TGI (XF 498 CNS): 35.9 µM

COc1ccc(N=Nc2c(-c3ccccc3)nn(C(=O)CC(=O)Nc3ccccc3Cl)c2-c2ccccc2)cc1
TGI (DLD-1 colon): > 100 µM
TGI (DMS 273 small cell lung): > 100 µM
TGI (HOP-18 NSCLC): > 100 µM
TGI (RXF-631 renal): > 100 µM
TGI (SNB-78 CNS): > 100 µM

CC(C)C[CH2][Ge]([CH2]CC(C)C)([CH2]CC(C)C)[CH2]CC(C)C
GI50 (MDA-N): > 100 µM
TGI (MDA-N): > 100 µM

NC(CCc1ncc(-c2ccccc2)s1)C(=O)O (centres undefined)
TGI (DLD-1 colon): > 100 µM
TGI (DMS 273 small cell lung): > 100 µM
TGI (HOP-18 NSCLC): > 100 µM
TGI (RXF-631 renal): > 100 µM
TGI (SNB-78 CNS): > 100 µM

COC1C(CO)OC(n2c3c(Cl)cccc3c3c4c(c5c6cccc(Cl)c6[nH]c5c32)C(=O)NC4=O)C(O)C1O (centres undefined)
TGI (DLD-1 colon): > 100 µM
TGI (DMS 273 small cell lung): 1.3 µM
TGI (MDA-N): 3.15 µM
TGI (RXF-631 renal): 84.3 µM
TGI (SNB-78 CNS): > 100 µM
TGI (XF 498 CNS): 0.931 µM

CCOc1ccc(NCC2CC/C(=C\c3ccc(Cl)cc3)C2=O)cc1 (centres undefined)
TGI (DLD-1 colon): 26.6 µM
TGI (DMS 273 small cell lung): > 54.1 µM
TGI (HOP-18 NSCLC): 54.6 µM
TGI (SNB-78 CNS): > 100 µM
TGI (XF 498 CNS): 37.1 µM

Cc1ccc(/C=C/C(=O)c2ccc([N+](=O)[O-])cc2)cc1
TGI (DLD-1 colon): > 100 µM
TGI (DMS 273 small cell lung): > 100 µM
TGI (HOP-18 NSCLC): > 100 µM
TGI (RXF-631 renal): > 100 µM
TGI (SNB-78 CNS): > 100 µM
TGI (XF 498 CNS): > 100 µM

Cc1cccc(C(C)C)c1NC(=O)CCl
TGI (DLD-1 colon): > 100 µM
TGI (DMS 273 small cell lung): > 100 µM
TGI (HOP-18 NSCLC): > 100 µM
TGI (SNB-78 CNS): > 100 µM

C=C1CCC2C(C)(CO)C(O)CCC2(C)C1C/C=C1/CCOC1=O (centres undefined)
TGI (DLD-1 colon): > 100 µM
TGI (DMS 273 small cell lung): > 100 µM
TGI (HOP-18 NSCLC): > 100 µM

O=C1CCNC(=O)NC1
TGI (DLD-1 colon): > 100 µM
TGI (DMS 273 small cell lung): > 100 µM
TGI (HOP-18 NSCLC): > 100 µM
TGI (RXF-631 renal): > 100 µM
TGI (SNB-78 CNS): > 100 µM
TGI (XF 498 CNS): > 100 µM

O=C1c2cccc3c(Cl)ccc(c23)C(=O)N1CCCN1CCN(CCCN2C(=O)c3cccc4c(Cl)ccc(c34)C2=O)CC1
TGI (DLD-1 colon): > 100 µM
TGI (DMS 273 small cell lung): > 100 µM
TGI (HOP-18 NSCLC): > 100 µM
TGI (RXF-631 renal): > 100 µM
TGI (SNB-78 CNS): > 100 µM
TGI (XF 498 CNS): > 100 µM

CCC(C)c1cccc(C)c1NC(=O)C(=O)Cc1nc2ccccc2s1 (centres undefined)
TGI (DLD-1 colon): > 100 µM
TGI (DMS 273 small cell lung): > 100 µM
TGI (HOP-18 NSCLC): > 100 µM
TGI (SNB-78 CNS): > 100 µM
TGI (XF 498 CNS): > 100 µM

CC#CC#C/C=C1\C=CC2(OC=CC2OC(C)=O)O1 (centres undefined)
TGI (DLD-1 colon): 34.3 µM
TGI (DMS 273 small cell lung): 49.1 µM
TGI (MDA-N): 30.1 µM
TGI (RXF-631 renal): 33.1 µM
TGI (SNB-78 CNS): 18.7 µM
TGI (XF 498 CNS): 37.7 µM

c1ccc2c(c1)Sc1ccccc1N2C1CN2CCC1CC2 (centres undefined)
TGI (DLD-1 colon): 29.6 µM
TGI (DMS 273 small cell lung): 30.7 µM
TGI (HOP-18 NSCLC): 47.5 µM
TGI (SNB-78 CNS): 30 µM
TGI (XF 498 CNS): 28.8 µM

O=C(/C=C/c1ccccc1O)c1cccc2ccccc12
TGI (DLD-1 colon): > 100 µM
TGI (DMS 273 small cell lung): > 100 µM
TGI (HOP-18 NSCLC): > 100 µM
TGI (RXF-631 renal): > 100 µM
TGI (SNB-78 CNS): > 100 µM
TGI (XF 498 CNS): > 100 µM

O=C1CCCC(O)=C1SC1=C(O)CCCC1=O
TGI (DLD-1 colon): > 100 µM
TGI (DMS 273 small cell lung): > 100 µM
TGI (HOP-18 NSCLC): > 100 µM
TGI (RXF-631 renal): > 100 µM
TGI (SNB-78 CNS): > 100 µM

CN1C(=O)CCC1c1ccc2c(c1)oc(=O)n2C (centres undefined)
TGI (DLD-1 colon): > 100 µM
TGI (DMS 273 small cell lung): > 100 µM
TGI (HOP-18 NSCLC): > 100 µM
TGI (SNB-78 CNS): > 100 µM
TGI (XF 498 CNS): > 100 µM

CC[C@H]1CN(C)[C@H]2Cc3c([nH]c4ccccc34)C(=O)C[C@H]1C2C(=O)OC (some centres undefined)
TGI (MDA-N): > 100 µM

CCOC(=O)C(=O)Nc1ccccc1OCC
TGI (DLD-1 colon): > 100 µM
TGI (HOP-18 NSCLC): > 100 µM
TGI (SNB-78 CNS): > 100 µM
TGI (XF 498 CNS): > 100 µM
